In ChEMBL document CHEMBL1201862, “PubChem BioAssay data set” (2004):
Activity calls are given as the source filed them.

Tests used:
[1] = target: T1, Methionyl-tRNA synthetase, putative (Trypanosoma brucei brucei, UniProt Q38C91); type: functional, Trypanosoma brucei brucei strain 927/4 GUTat10.1
T1 sequence (Q38C91 whole entry): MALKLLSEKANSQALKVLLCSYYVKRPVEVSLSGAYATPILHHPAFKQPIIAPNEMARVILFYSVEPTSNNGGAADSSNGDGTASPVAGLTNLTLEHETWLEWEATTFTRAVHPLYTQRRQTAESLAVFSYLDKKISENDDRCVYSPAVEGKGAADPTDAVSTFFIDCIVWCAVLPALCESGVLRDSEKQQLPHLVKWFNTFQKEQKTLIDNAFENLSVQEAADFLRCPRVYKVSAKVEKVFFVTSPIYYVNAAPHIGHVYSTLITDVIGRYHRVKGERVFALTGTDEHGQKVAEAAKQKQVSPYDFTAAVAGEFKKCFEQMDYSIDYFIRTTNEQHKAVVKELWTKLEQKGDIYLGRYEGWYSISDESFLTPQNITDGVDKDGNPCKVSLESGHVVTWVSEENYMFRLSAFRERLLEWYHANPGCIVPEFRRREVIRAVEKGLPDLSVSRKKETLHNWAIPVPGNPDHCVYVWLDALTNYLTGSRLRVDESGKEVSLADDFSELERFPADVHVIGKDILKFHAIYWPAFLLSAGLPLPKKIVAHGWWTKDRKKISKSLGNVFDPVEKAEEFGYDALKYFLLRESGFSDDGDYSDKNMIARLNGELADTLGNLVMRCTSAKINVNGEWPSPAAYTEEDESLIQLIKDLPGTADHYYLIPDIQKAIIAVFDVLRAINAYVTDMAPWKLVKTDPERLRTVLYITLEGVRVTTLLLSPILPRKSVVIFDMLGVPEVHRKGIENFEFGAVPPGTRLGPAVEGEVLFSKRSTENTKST

[2] = Counterscreen for inhibitors of Trypanosoma brucei methionyl tRNA synthetase (MetRS): Luminescence-based cell-based high throughput dose response assay to identify compounds that are cytotoxic to Jurkat human T lymphocyte cells.; type: functional
[3] = Late stage counterscreen for inhibitors of Trypanosoma brucei methionyl tRNA synthetase (MetRS): Luminescence-based cell-based high throughput dose response assay to identify compounds that are cytotoxic to Jurkat human T lymphocyte cells.; type: functional
[4] = target: T1, Methionyl-tRNA synthetase, putative; type: functional, Trypanosoma brucei brucei strain 927/4 GUTat10.1; remark: listed apart in the source
[5] = viability loss in MITF-independent A375 cells – cell-based, CellTiter-Glo luminescence, dry powder, set 2, counter-screen for MITF inhibitor project, dose response (AID 624489); type: functional; details: A-375;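 also: actives are compounds lowering A375 viability meaning general cytotoxicity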
[6] = cytotoxicity in MITF-independent A375 cells – cell-based, CellTiter-Glo luminescence, dry powder, set 4, counter-screen for MITF inhibitor project, dose response (AID 624364); type: functional; details: A-375;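 also: A375 melanoma cells are MITF independent so this is a counter screen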
[7] = target: Paired box protein Pax-8 (Homo sapiens, UniProt Q06710); test: PAX8 transcriptional activity inhibition in RMG-I – RMG-I cells, luciferase, cherry-pick, dose response (AID 687027); type: functional, cell-based;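 also: luciferase reporter driven by Pax8 target thyroperoxidase promoter measured by SteadyGlo luminescence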
[8] = PAX5 cellular inhibition readout – cell-based, plate reader, dry powder samples, selectivity assay for PAX8 inhibitor project, dose response (AID 743047); type: functional;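 also: HEK293 cells carrying a Pax5 driven CD19 promoter luciferase reporter; potency of inhibitors that lower reporter luminescence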
[9] = OVCAR8 cell viability loss – plate reader, dry powder samples, PAX8 project, dose response (AID 743197); type: functional, cell-based; details: OVCAR-8
[10] = PAX8-dependent cell viability loss – plate reader, dry powder, dose response (AID 743049); type: functional, cell-based
[11] = COV362 cell viability loss – plate reader, dry powder, SA12, cytotoxicity control for PAX8 inhibitor project, dose response (AID 743144); type: functional, cell-based
[12] = COV434 cell viability loss – plate reader, dry powder, SA7, cytotoxicity control for PAX8 inhibitor project, dose response (AID 743145); type: functional, cell-based
[13] = toxicity toward immortalized ovarian surface epithelium – cell-based, plate reader, dry powder samples, cytotoxicity control for PAX8 inhibitor project, dose response (AID 743045); type: functional
[14] = OV-90 cell viability loss – plate reader, dry powder, SA8, PAX8 inhibitor project, dose response (AID 743149); type: functional, cell-based
[15] = inhibitors acting on PAX2 in cells – cell-based, plate reader, dry powder samples, selectivity assay for PAX8 inhibitor project, dose response (AID 743048); type: functional;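 also: HEK293 cells carrying a WT1 promoter luciferase reporter driven by expressed Pax2; potency is for inhibition of Pax2 driven reporter signal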
[16] = IGROV1 cell killing – plate reader, dry powder samples, PAX8 inhibitor project, dose response (AID 743043); type: functional, cell-based; details: IGROV-1
[17] = OVCAR4 cell viability loss – plate reader, dry powder, SA11, cytotoxicity control for PAX8 inhibitor project, dose response (AID 743150); type: functional, cell-based; details: OVCAR-4
[18] = target: Potassium channel subfamily K member 3 (Homo sapiens, UniProt O14649); test: inhibition of human KCNK3 channel flux – CHO cells, FluxOR thallium flux, SAR follow-up (AID 652212); type: functional
[19] = viability loss in HepG2 liver cells – cell-based, ATP luminescence, cherry-pick, set 6, cytotoxicity control, dose response (AID 1053125); type: functional
[20] = target: Large T antigen (Simian virus 40, UniProt P03070); type: functional, Betapolyomavirus macacae;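 also: Confirmatory-stage PubChem screen for compounds that inhibit SV40 T antigen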
[21] = cells; details: HEK293
[22] = cells; details: A549
[23] = target: Mu-type opioid receptor (Homo sapiens, UniProt P35372); test: Late-stage results from the probe development effort to identify antagonists of OPRK1: luminescence-based cell-based dose response OPRM1 counterscreen.; type: functional
[24] = target: Delta-type opioid receptor (Homo sapiens, UniProt P41143); test: Late-stage results from the probe development effort to identify antagonists of OPRK1: fluorescence-based cell-based dose response OPRD1 counterscreen.; type: functional
[25] = target: NAD-dependent protein deacylase sirtuin-5, mitochondrial (Homo sapiens, UniProt Q9NXA8); test: blockers of sirtuin-5 peptide desuccinylation – biochemical, fluorescence imaging, cherry-pick, set 6, dose response (AID 720597)
NAD-dependent protein deacylase sirtuin-5, mitochondrial, sequence (Q9NXA8 whole entry): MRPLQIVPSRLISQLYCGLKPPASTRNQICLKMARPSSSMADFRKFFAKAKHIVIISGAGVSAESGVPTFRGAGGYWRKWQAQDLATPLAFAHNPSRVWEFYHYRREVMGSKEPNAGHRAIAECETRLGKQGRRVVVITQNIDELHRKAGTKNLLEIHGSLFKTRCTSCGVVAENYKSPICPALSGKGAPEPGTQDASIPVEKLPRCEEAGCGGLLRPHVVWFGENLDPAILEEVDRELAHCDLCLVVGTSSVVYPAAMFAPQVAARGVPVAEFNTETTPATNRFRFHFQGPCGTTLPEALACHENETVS

Paired box protein Pax-8, sequence (Q06710 whole entry): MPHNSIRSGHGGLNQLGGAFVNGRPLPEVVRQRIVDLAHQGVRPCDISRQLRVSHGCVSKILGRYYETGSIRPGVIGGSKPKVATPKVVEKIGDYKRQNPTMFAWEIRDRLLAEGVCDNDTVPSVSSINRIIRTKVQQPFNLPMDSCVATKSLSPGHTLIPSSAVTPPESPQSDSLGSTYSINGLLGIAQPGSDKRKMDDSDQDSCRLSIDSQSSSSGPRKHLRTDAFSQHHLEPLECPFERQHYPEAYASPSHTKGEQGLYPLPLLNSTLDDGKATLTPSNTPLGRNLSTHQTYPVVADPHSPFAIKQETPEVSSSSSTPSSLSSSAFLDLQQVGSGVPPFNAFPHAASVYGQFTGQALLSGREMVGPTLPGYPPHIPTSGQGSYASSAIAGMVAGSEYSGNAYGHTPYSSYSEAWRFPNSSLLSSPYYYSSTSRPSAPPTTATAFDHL
Potassium channel subfamily K member 3, sequence (O14649 whole entry): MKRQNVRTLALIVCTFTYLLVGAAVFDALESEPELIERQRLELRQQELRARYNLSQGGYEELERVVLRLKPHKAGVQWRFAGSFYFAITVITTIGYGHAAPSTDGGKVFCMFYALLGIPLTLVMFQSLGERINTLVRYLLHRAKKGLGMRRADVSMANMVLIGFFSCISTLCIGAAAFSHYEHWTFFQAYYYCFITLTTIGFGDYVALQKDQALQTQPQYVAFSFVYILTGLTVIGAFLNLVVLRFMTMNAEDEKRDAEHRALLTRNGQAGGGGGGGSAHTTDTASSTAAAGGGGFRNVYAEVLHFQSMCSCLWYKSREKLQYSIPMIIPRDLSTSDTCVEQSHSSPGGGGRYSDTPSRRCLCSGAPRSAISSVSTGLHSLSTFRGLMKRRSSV
Large T antigen, sequence (P03070 whole entry): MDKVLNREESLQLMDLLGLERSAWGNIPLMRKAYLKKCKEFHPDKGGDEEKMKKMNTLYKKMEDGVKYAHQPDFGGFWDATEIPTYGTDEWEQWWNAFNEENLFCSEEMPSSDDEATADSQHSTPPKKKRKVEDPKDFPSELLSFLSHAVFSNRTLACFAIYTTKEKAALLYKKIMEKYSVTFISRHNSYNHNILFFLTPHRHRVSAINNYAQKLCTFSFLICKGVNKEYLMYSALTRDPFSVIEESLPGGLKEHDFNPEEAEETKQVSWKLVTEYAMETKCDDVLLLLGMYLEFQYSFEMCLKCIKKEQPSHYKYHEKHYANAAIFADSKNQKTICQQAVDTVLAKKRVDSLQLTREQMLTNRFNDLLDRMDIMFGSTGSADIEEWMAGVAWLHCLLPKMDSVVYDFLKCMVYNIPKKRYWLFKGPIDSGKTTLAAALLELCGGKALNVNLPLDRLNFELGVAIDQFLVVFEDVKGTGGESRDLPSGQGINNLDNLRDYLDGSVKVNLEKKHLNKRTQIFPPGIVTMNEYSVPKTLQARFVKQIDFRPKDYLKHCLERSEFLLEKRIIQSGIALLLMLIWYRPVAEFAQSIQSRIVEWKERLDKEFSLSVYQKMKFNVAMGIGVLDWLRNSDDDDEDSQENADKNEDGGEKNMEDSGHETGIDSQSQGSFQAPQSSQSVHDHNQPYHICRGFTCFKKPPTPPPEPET
Delta-type opioid receptor, sequence (P41143 whole entry): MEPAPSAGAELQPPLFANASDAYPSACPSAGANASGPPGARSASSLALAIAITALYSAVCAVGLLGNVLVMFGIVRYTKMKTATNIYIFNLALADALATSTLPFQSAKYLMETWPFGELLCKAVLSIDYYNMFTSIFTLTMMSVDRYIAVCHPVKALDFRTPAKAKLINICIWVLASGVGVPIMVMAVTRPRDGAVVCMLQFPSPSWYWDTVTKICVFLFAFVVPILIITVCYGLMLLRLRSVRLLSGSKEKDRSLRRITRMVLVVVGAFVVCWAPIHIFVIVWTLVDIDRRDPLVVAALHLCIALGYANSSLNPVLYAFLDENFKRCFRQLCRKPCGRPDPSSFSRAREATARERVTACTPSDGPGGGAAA
Mu-type opioid receptor, sequence (P35372 whole entry): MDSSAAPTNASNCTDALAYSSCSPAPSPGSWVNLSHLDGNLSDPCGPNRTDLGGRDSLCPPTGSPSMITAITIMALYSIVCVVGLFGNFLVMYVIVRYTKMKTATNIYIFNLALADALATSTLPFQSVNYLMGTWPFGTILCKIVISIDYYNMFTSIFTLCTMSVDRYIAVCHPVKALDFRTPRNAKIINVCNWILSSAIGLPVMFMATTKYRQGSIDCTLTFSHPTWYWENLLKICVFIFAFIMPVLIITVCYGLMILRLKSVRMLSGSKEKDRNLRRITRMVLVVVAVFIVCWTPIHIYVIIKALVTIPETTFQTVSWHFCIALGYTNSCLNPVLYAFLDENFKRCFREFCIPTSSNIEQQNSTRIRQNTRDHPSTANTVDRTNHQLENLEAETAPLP

O=C(N/C(=C\c1cccnc1)c1nc2ccccc2[nH]1)c1cccc(Br)c1
IC50 [1]: 8.16 µM (active) | IC50 [2]: 83.3 µM (inactive) | IC50 [3]: > 83.3 µM (inactive) | IC50 [4]: 4.56 µM (active)

O=C(NC1=C(N2CCCCC2)C(=O)c2ccccc2C1=O)c1ccccc1
AC50 [5]: > 70 µM (inactive) | AC50 [6]: 54.4 µM (active)

CCCNC(=O)N(C)C[C@H]1N[C@@H](CO)[C@@H]1c1ccc(C2=CCCCC2)cc1
AC50 [7]: 3.47 µM (active) | AC50 [8]: > 16 µM (inactive) | AC50 [9]: 14.4 µM (active) | AC50 [10]: 10.1 µM (active) | AC50 [11]: 10.7 µM (active) | AC50 [12]: 18.2 µM (active) | AC50 [13]: 25.9 µM (active) | AC50 [14]: 14.5 µM (active) | AC50 [15]: 8.91 µM (active) | AC50 [16]: 16.3 µM (active) | AC50 [17]: 6.07 µM (active)

CCOc1ccccc1NC(=O)c1cccc(NC(=O)C2CCCO2)c1 (stereo unspecified)
IC50 [18]: 0.129 µM (active)

O=C(c1ccccc1)N1CCN(c2ccc(NCc3ccc4c(c3)OCO4)cc2)CC1
AC50 [19]: > 52 µM (inactive) | IC50 [20]: > 100 µM (active) | AC50 [21]: 20.2 µM (active) | AC50 [22]: > 52 µM (inactive)

COC(=O)c1cc(Br)cnc1N1CCC(NC2CCCC2)CC1
IC50 [23]: 4 µM (active) | IC50 [24]: 7 µM (active)

Cc1ccc(S(=O)(=O)N(C)C[C@@H]2OCCCC[C@H](C)Oc3ccc(NS(=O)(=O)c4ccc(Cl)cc4)cc3C(=O)N([C@H](C)CO)C[C@H]2C)cc1
AC50 [7]: 7.27 µM (active) | AC50 [25]: > 30 µM (inactive)
